Assay results reported in ChEMBL document CHEMBL1201862, “PubChem BioAssay data set” (2004).
Activity calls are given as the source filed them.

How the values were obtained:
[1] = target: T1, Cannabinoid receptor 2 (Homo sapiens, UniProt P34972); experiment: SAR analysis of antagonists of the Cannabinoid Receptor 2 using an Image-Based Assay - Set 2. [Related pubchem assays (depositor defined):AID1961, AID1965]; format: functional
[2] = target: T2, G-protein coupled receptor 35 (Homo sapiens, UniProt Q9HC97); experiment: SAR analysis of Antagonists of the GPR35 Receptor using an Image-Based Assay - Set 4. [Related pubchem assays (depositor defined):[…]]; format: functional
[3] = target: T2, G-protein coupled receptor 35; experiment: SAR analysis of Agonists of the GPR35 Receptor using an Image-Based Assay - Set 3. [Related pubchem assays (depositor defined):AID1961, AID1965]; format: functional
[4] = target: T3, G-protein coupled receptor 55 (Homo sapiens, UniProt Q9Y2T6); experiment: SAR analysis of selective Agonists of GPR55 using an Image-Based Assay - Set 2. [Related pubchem assays (depositor defined):AID1961, AID1965]; format: functional
[5] = target: T4, Cannabinoid receptor 1 (Homo sapiens, UniProt P21554); experiment: SAR analysis of agonists of the Cannabinoid Receptor 1 using an Image-Based Assay - Set 3. [Related pubchem assays (depositor defined):AID1961, AID1965]; format: functional
[6] = target: T4, Cannabinoid receptor 1; experiment: SAR analysis of antagonists of the Cannabinoid Receptor 1 using an Image-Based Assay - Set 3. [Related pubchem assays (depositor defined):AID1961, AID1965]; format: functional
[7] = target: T1, Cannabinoid receptor 2; experiment: SAR analysis of agonists of the Cannabinoid Receptor 2 using an Image-Based Assay - Set 2. [Related pubchem assays (depositor defined):AID1961, AID1965]; format: functional
[8] = target: Heat shock protein HSP 90-alpha (Homo sapiens, UniProt P07900); format: functional, organism-based
[9] = target: NACHT, LRR and PYD domains-containing protein 1 (Homo sapiens, UniProt Q9C000); experiment: NALP1 inhibitors in yeast, dose response, luminescent (AID 488860); format: functional
[10] = test system: Saccharomyces cerevisiae; experiment: NALP1 inhibitor project selectivity study, Caspase-1/ASC signal blockade IC50 in S. cerevisiae (AID 488863); format: functional, organism-based
[11] = Luminescence Cell-Based Dose Retest to Confirm Inhibitors of Cancer Stem Cells. [Related pubchem assays (depositor defined):AID2717, AID2721]; format: functional; details: Homo sapiens
[12] = target: Beta-galactosidase (Escherichia coli, UniProt Q8VNN2); experiment: beta-galactosidase enzyme inhibitors and activators, dose response, artefact control for CCR6 antagonist project, biochemical, E. coli enzyme, set 3 (AID 504712); format: functional
[13] = target: Coagulation factor XII (Homo sapiens, UniProt P00748); format: functional;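 further: activated factor XIIa alpha cleaving a fluorogenic AMC peptide substrate; inhibitor potency from loss of enzyme activity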
[14] = target: Sphingosine 1-phosphate receptor 1 (Homo sapiens, UniProt P21453); experiment: Fluorescence-based counterscreen assay for S1P4 agonists: Cell-based dose response high throughput screening assay to identify agonists of the Sphingosine 1-Phosphate Receptor 1 (S1P1). [Related pubchem assays (depositor defined):AID1509, AID1523, AID1801, AID463107, AID463118, AID463119, AID463122, AID463123, AID463129, AID463225, AID504400, AID504460]; format: functional
[15] = target: T5, Sphingosine 1-phosphate receptor 4 (Homo sapiens, UniProt O95977); experiment: Fluorescence dose response cell-based high throughput screening assay for agonists of the Sphingosine 1-Phosphate Receptor 4 (S1P4). [Related pubchem assays: 1509 (Primary screen.), 1523 (Confirmation screen in triplicates.)]; format: functional
T5 sequence (O95977 whole entry): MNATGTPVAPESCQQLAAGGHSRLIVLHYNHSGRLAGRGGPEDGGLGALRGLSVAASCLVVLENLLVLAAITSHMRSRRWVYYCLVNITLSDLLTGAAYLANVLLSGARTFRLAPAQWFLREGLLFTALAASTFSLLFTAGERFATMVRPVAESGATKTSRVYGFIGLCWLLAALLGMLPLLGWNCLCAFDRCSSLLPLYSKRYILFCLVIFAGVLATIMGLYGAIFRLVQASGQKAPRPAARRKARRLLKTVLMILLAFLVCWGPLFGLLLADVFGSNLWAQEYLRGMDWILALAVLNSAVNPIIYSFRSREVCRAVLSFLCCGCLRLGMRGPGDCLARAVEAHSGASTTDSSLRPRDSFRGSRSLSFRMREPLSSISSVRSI

[16] = target: T6, Type-1 angiotensin II receptor (Homo sapiens, UniProt P30556); experiment: AT1 receptor agonists, dose response, selectivity assay for APJ receptor agonist project, cell-based, uHTS hits (AID 488865); format: functional;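 further: beta-arrestin recruitment to AT1 measured by enzyme fragment complementation luminescence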
T6 sequence (P30556 whole entry): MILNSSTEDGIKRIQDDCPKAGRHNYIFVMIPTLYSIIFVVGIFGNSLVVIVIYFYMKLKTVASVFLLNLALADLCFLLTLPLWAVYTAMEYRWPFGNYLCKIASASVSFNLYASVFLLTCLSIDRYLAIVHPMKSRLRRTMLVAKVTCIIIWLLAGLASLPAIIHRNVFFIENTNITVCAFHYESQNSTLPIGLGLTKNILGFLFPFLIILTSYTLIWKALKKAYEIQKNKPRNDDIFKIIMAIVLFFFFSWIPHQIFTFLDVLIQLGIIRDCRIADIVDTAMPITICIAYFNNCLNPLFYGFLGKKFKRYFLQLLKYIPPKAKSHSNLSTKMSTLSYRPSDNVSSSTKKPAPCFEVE

[17] = target: DNA damage-inducible transcript 3 protein (Mus musculus, UniProt P35639); format: functional, Cricetulus griseus
[18] = target: Voltage-dependent T-type calcium channel subunit alpha-1H (Homo sapiens, UniProt O95180); experiment: Cav3.2 T-type channel inhibitors, cell-based, synthetic library set 1, calcium flux (AID 493022); format: functional
[19] = target: Phosphomannomutase 2 (Homo sapiens, UniProt O15305); experiment: Counter screen SAR assay for PMM2 inhibitors via a fluorescence intensity assay. [Related pubchem assays (depositor defined):AID1545, AID1574]
[20] = target: T7, Mannose-6-phosphate isomerase (Homo sapiens, UniProt P34949); experiment: PMI enzyme inhibitors, confirmation, biochemical, fluorescence intensity (AID 1535)
T7 sequence (P34949 whole entry): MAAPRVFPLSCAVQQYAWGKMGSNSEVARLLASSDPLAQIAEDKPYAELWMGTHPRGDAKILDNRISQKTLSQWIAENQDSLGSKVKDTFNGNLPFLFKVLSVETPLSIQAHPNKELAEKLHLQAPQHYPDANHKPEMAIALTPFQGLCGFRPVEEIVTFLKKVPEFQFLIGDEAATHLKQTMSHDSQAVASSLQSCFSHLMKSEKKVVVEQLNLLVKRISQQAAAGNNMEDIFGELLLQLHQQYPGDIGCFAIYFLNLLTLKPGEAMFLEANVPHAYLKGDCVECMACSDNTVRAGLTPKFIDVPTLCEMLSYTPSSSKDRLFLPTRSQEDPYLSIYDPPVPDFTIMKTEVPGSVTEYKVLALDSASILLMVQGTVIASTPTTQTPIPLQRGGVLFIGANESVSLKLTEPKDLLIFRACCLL

[21] = target: Hexokinase (Trypanosoma brucei, UniProt Q38C41); experiment: Confirmation assay for inhibitors of Trypanosoma brucei hexokinase 1-Analogue-first series. [Related pubchem assays (depositor defined):AID1430, AID1632, AID2516, AID2560, AID2579, AID2600, AID449725, AID492951]; format: functional
[22] = target: T8, Protein RecA (Mycobacterium tuberculosis, UniProt P9WHJ3); experiment: Fluorescence Cell-Free Homogeneous Dose Retest to Identify Inhibitors of RecA-Intein Splicing Activity. [Related pubchem assays (depositor defined):AID2097, AID2223, AID489010, AID492950]; format: functional
T8 sequence (P9WHJ3 whole entry): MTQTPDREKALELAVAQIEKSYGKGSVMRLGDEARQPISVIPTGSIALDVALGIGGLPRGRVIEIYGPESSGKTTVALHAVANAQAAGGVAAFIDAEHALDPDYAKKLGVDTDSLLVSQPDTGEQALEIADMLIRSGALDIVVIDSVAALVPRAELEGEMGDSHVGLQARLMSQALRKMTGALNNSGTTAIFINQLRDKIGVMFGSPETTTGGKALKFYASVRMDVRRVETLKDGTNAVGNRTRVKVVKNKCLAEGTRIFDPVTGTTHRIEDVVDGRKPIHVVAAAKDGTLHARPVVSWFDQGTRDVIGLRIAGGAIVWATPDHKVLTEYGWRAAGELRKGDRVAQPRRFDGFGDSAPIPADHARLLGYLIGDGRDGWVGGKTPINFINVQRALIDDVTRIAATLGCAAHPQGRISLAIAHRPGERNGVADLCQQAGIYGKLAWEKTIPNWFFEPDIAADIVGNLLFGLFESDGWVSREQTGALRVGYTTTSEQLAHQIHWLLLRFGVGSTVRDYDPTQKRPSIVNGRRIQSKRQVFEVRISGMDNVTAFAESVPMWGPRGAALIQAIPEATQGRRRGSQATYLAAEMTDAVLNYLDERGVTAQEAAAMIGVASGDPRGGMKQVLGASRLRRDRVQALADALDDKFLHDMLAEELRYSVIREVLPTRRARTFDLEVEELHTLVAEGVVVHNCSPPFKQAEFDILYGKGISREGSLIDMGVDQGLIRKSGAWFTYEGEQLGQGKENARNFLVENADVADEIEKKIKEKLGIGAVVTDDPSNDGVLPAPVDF

[23] = Intein inhibitors as potential Tuberculosis drugs, a cytotoxicity screen. [Related pubchem assays (depositor defined):AID2221, AID2223, AID434968, AID435010, AID449749, AID449750, AID489010]; format: functional
[24] = target: Melanocortin receptor 4 (Homo sapiens, UniProt P32245); format: functional, cell-based;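 further: Cell-based assay with luminescence read-out, confirmatory dose-response testing for agonist activity of biased ligands at MC4R; human U2OS cells with tagged receptor and beta-arrestin; potency of agonists that increase receptor coupling to beta-arrestin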
[25] = target: T9, Replicative DNA helicase DnaB (Mycobacterium tuberculosis, UniProt P9WMR3); experiment: DnaB intein splicing inhibitors, dose response, biochemical, cell-free fluorescence (AID 449749); format: functional
T9 sequence (P9WMR3 whole entry): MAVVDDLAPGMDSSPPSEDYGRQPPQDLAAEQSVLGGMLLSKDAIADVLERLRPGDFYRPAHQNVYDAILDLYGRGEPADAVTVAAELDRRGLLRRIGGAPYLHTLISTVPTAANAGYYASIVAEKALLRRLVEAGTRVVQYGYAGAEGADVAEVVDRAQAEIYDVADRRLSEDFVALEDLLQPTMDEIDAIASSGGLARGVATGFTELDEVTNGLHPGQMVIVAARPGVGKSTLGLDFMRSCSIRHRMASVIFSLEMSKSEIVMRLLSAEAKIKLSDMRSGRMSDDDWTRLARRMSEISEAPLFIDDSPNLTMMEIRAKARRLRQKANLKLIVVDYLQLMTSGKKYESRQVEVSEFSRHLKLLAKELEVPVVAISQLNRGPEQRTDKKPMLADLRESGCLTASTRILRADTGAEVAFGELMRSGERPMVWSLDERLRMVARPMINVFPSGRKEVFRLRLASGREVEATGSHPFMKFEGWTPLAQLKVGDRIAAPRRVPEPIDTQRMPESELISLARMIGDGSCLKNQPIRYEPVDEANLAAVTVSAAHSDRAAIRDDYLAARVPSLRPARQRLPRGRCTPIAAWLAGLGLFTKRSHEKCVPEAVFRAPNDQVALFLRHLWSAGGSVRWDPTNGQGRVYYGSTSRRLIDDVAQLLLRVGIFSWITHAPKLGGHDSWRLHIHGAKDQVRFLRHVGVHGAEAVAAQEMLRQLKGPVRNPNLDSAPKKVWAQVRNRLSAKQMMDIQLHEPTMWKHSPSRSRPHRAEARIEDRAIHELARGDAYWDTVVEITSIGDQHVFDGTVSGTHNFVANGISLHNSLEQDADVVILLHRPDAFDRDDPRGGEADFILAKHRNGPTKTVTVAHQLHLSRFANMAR

[26] = target: T3, G-protein coupled receptor 55; experiment: GPR55 agonists via beta-arrestin recruitment, primary screen, imaging, U2OS cells, beta-arrestin-GFP redistribution (AID 1961); format: functional
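Wherever CC50 is given: cells exposed to compound for 72 hours before luminescence readout.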

T1 sequence (P34972 whole entry): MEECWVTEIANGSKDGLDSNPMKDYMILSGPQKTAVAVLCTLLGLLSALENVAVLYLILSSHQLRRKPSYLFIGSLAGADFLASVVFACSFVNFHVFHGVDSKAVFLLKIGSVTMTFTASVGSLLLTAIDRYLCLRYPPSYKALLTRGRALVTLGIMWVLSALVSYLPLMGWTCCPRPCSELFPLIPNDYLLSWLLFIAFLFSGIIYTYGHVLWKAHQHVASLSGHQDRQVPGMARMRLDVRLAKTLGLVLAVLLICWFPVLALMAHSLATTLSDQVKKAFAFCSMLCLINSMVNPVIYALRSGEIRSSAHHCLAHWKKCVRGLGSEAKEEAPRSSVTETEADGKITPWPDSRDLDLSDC
T3 sequence (Q9Y2T6 whole entry): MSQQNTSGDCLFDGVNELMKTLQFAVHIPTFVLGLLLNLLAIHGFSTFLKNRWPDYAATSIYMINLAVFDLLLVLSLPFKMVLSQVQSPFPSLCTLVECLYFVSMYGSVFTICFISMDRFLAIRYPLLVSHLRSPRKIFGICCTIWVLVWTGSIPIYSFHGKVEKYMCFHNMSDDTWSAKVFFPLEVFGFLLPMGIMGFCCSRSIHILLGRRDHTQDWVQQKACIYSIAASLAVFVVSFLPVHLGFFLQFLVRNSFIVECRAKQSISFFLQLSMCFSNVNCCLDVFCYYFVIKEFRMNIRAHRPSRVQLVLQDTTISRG
T4 sequence (P21554 whole entry): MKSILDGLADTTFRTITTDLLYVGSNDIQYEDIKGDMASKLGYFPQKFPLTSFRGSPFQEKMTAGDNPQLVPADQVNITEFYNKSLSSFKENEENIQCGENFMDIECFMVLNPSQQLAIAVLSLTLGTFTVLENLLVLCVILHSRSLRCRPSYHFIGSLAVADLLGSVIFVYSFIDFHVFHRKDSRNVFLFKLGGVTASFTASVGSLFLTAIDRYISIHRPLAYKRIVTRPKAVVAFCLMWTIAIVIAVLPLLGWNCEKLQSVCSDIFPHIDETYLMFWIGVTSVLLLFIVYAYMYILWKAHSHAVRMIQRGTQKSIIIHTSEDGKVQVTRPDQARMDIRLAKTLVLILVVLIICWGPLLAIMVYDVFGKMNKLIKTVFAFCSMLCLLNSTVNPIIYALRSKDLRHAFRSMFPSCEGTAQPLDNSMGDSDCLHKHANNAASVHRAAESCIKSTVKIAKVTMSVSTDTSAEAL
T2 sequence (Q9HC97 whole entry): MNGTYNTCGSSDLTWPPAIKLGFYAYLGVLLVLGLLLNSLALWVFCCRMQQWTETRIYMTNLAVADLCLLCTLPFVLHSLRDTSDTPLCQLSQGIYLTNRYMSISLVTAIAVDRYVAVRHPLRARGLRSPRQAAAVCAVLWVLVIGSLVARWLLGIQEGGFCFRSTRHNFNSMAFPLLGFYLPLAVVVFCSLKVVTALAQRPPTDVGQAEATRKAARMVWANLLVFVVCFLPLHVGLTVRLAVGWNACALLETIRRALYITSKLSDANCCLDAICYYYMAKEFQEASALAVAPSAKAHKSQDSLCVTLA
Beta-galactosidase, sequence (Q8VNN2 whole entry): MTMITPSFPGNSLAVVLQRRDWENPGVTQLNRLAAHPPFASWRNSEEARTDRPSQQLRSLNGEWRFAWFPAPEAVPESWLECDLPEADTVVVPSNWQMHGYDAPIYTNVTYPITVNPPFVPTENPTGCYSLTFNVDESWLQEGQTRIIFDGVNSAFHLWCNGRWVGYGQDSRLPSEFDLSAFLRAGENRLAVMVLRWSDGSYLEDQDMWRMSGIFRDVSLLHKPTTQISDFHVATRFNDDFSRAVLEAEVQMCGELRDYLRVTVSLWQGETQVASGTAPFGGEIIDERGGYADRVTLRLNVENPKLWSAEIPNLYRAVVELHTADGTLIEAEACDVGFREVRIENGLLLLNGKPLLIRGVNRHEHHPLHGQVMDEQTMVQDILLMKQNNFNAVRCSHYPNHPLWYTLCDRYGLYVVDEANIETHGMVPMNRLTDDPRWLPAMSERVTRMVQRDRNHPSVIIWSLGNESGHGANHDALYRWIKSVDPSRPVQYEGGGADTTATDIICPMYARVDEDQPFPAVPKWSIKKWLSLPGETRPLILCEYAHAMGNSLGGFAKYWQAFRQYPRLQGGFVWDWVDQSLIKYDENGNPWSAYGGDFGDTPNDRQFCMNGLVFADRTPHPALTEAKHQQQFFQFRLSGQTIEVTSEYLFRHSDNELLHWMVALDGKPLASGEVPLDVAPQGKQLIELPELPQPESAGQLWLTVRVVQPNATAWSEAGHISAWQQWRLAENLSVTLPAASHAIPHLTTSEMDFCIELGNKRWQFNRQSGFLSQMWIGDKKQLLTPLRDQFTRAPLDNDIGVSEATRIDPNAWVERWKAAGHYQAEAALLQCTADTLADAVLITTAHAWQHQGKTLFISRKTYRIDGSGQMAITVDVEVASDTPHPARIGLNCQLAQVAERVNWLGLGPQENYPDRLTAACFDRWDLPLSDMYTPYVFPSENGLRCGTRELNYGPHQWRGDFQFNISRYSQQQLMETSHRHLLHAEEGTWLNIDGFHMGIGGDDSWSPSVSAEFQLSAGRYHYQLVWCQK
Phosphomannomutase 2, sequence (O15305 whole entry): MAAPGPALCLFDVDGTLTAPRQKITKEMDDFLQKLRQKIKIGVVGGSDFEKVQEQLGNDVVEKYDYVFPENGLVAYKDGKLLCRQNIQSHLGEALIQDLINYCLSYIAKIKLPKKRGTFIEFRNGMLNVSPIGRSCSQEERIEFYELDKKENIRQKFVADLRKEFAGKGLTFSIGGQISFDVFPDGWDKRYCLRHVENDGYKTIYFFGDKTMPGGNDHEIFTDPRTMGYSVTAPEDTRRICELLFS
Hexokinase, sequence (Q38C41 whole entry): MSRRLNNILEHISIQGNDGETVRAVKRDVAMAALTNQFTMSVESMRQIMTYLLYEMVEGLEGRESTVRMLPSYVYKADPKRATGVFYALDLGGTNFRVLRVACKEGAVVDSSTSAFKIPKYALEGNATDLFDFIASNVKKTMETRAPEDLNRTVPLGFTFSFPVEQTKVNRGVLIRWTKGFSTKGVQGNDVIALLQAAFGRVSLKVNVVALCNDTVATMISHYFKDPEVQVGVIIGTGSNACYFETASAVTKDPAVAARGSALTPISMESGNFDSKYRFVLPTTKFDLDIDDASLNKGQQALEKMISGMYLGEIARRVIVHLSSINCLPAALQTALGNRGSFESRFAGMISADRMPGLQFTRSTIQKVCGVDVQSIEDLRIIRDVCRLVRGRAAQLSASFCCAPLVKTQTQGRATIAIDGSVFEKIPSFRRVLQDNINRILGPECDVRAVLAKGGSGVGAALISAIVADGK
Coagulation factor XII, sequence (P00748 20-372 limits assumed): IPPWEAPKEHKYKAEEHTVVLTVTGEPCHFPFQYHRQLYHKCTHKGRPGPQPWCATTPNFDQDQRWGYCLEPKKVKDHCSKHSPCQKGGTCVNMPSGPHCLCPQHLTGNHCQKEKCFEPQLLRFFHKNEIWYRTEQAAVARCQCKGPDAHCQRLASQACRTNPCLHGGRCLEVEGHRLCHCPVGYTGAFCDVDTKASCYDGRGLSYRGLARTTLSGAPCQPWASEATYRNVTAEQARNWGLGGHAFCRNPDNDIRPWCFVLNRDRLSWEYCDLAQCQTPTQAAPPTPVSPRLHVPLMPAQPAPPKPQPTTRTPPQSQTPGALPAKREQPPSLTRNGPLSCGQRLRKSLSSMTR
Coagulation factor XII, sequence (P00748 373-615 limits assumed): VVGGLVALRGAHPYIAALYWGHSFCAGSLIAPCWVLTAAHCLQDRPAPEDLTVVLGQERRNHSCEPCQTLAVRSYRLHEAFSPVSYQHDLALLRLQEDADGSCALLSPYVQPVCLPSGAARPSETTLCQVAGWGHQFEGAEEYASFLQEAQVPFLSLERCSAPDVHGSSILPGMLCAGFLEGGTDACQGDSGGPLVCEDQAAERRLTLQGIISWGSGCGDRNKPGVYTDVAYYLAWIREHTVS
DNA damage-inducible transcript 3 protein, sequence (P35639 whole entry): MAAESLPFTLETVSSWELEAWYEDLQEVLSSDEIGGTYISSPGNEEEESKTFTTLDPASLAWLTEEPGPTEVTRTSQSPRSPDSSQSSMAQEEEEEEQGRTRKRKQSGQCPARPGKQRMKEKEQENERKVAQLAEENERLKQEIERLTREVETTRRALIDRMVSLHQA
Melanocortin receptor 4, sequence (P32245 whole entry): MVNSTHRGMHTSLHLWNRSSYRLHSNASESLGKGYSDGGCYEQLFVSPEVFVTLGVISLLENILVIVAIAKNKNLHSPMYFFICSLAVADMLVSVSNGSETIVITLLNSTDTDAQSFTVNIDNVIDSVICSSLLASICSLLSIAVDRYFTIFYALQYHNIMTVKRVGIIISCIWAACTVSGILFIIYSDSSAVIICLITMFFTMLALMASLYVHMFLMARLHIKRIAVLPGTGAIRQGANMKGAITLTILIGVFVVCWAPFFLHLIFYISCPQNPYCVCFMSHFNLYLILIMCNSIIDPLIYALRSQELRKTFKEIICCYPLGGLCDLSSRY
Sphingosine 1-phosphate receptor 1, sequence (P21453 whole entry): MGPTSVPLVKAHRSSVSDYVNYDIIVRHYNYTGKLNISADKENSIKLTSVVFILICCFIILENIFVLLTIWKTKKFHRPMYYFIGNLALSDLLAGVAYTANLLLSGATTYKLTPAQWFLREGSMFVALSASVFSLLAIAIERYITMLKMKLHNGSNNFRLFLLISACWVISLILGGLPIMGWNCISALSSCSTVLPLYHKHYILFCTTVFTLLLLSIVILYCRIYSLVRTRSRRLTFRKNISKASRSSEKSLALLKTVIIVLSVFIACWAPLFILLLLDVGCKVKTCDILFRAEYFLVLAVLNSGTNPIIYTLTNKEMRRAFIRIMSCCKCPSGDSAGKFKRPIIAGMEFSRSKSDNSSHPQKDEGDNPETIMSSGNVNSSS

SMILES: COc1ccc(S(=O)(=O)N2CCOCC2)cc1NC(=O)c1cc2c(s1)CCCCC2
- IC50 [1]: > 32 µM (inactive)
- IC50 [2]: > 32 µM (inactive)
- EC50 [3]: > 32 µM (inactive)
- EC50 [4]: > 32 µM (inactive)
- EC50 [5]: > 32 µM (inactive)
- IC50 [6]: 20.6 µM (inactive)
- EC50 [7]: > 32 µM (inactive)

SMILES: Cc1cc(N2C(=O)C=CC2=O)c([N+](=O)[O-])cc1C
- AC50 [8]: 1.07 µM (active)
- IC50 [9]: 17.7 µM (active)
- IC50 [10]: 23.9 µM (active)
- AC50 [11]: 4.18 µM (active)
- IC50 [12]: > 66.6 µM (inactive)

SMILES: Cc1cc(=O)oc2cc(OC(=O)CCN3C(=O)c4ccccc4C3=O)ccc12
- IC50 [13]: > 50 µM (inactive)

SMILES: CCN(c1ccccc1)S(=O)(=O)c1cc([N+](=O)[O-])ccc1N
- EC50 [14]: > 49.8 µM (inactive)
- EC50 [15]: 9.34 µM (active)

SMILES: CCOc1cc2[nH]c(=S)n(CCN3CCC(C)CC3)c(=O)c2cc1OCC
- EC50 [16]: > 100 µM (inactive)

SMILES: CC(C)(C)C1C/C(=C/c2ccco2)C(=O)/C(=C/c2ccco2)C1 (stereo unspecified)
- Absolute IC50 (CHOP) [17]: < 10 µM

SMILES: Cc1ccc(-c2nnc(NC(=O)COc3ccc(F)cc3Cl)o2)cc1C
- EC50 [18]: 1.1 µM (active)

SMILES: COc1ccc(C/N=c2\ssnc2Cl)cc1
- IC50 [19]: > 100 µM (inactive)
- IC50 [20]: 15.5 µM (active)

SMILES: O=c1c2cc(N3CCOCC3)ccc2sn1-c1ccccc1
- IC50 [21]: 4.46 µM (active)

SMILES: Cc1ccc(Sc2ccc(NC(=O)CCl)cc2)cc1C
- EC50 [22]: 0.716 µM (active)
- CC50 [23]: 7.87 µM (active)
- EC50 [24]: > 89.2 µM (inactive)
- AC50 [25]: 2.51 µM (active)

SMILES: CCCc1ccc2oc(C(=O)N(Cc3ccncc3)CC3CCCO3)c(C)c2c1 (stereo unspecified)
- EC50 [26]: 11.2 µM (inactive)
